Results taken from patent US5484717A, “Antibiotic 31F508α1, 31F508α2, 31F508β1, 31F508β2” (American Cyanamid Company, priority 1995, dated 1996).
≈ marks a conversion by molar mass, not a printed value. Where two headings read alike, the source gives them in different places.

Legend:
B. cereus (Bacto) = assay: In vitro antibacterial activity, agar dilution MIC; type: cell-based; details: Bacillus cereus, 18 h, read-out: Minimum Inhibitory Concentration
Procedure: (§1) The in vitro antibacterial activity of 31F508α1 and α2 is determined against a spectrum of gram-positive and gram-negative bacteria by a standard agar dilution method. Mueller-Hinton agar with and without 5% sheep blood and two-fold decreasing concentrations of either 31F508α1 or α2 are poured into petri dishes. The agar surfaces are inoculated with 1 to 5×10^4 colony forming units of bacteria by means of the Steers replicating device. The lowest concentration of antibiotic that inhibits growth of a bacterial strain after 18 hours incubation is recorded as the minimal inhibitory concentration for that strain. The results are given in Table V with sheeps blood added to the agar.

CNS (4615) = assay: In vitro antibacterial activity, agar dilution MIC; type: cell-based; details: 18 h
Procedure: as §1

CNS (ID-3120) = assay: In vitro antibacterial activity, agar dilution MIC; type: cell-based; details: 18 h
Procedure: as §1

CNS (ID-3941) = assay: In vitro antibacterial activity, agar dilution MIC; type: cell-based; details: 18 h
Procedure: as §1

E. Avium (ID-3953) = assay: In vitro antibacterial activity, agar dilution MIC; type: cell-based; details: Enterococcus avium, 18 h, read-out: Minimum Inhibitory Concentration
Procedure: as §1

E. coli (ATCC 25922) = assay: In vitro antibacterial activity, agar dilution MIC; type: cell-based; details: 18 hours; for MIC: Escherichia coli, ATCC25922, without sheep blood, read-out: Minimum Inhibitory Concentration
Procedure: as §1

E. coli (J2175) = assay: In vitro antibacterial activity, agar dilution MIC; type: cell-based; details: Escherichia coli, 18 h, read-out: Minimum Inhibitory Concentration
Procedure: as §1

E. coli (J2445) = assay: In vitro antibacterial activity, agar dilution MIC; type: cell-based; details: Escherichia coli, 18 h, read-out: Minimum Inhibitory Concentration
Procedure: as §1

E. faecalis (12201) = assay: In vitro antibacterial activity, agar dilution MIC; type: cell-based; details: Enterococcus faecalis, 18 h, read-out: Minimum Inhibitory Concentration
Procedure: as §1

E. faecalis (ID-1829) = assay: In vitro antibacterial activity, agar dilution MIC; type: cell-based; details: Enterococcus faecalis, 18 h, read-out: Minimum Inhibitory Concentration
Procedure: as §1

E. faecalis (ID-4168) = assay: In vitro antibacterial activity, agar dilution MIC; type: cell-based; details: Enterococcus faecalis, 18 h, read-out: Minimum Inhibitory Concentration
Procedure: as §1

E. faecium (ID-4133) = assay: In vitro antibacterial activity, agar dilution MIC; type: cell-based; details: 18 hours; for MIC: Enterococcus faecium, without sheep blood, read-out: Minimum Inhibitory Concentration
Procedure: as §1

M. morganii (VGH 84-11) = assay: In vitro antibacterial activity, agar dilution MIC; type: cell-based; details: Morganella morganii, 18 h, read-out: Minimum Inhibitory Concentration
Procedure: as §1

[1] = tested on: P. aeruginosa (ATCC 27853); assay: In vitro antibacterial activity, agar dilution MIC; type: cell-based; details: 18 hours; for MIC: Pseudomonas aeruginosa, ATCC27853, without sheep blood, read-out: Minimum Inhibitory Concentration
Procedure: as §1

S. Pyogenes (ID-3187) = assay: In vitro antibacterial activity, agar dilution MIC; type: cell-based; details: Streptococcus pyogenes, 18 h, read-out: Minimum Inhibitory Concentration
Procedure: as §1

S. lutea (ATCC 9341) = assay: In vitro antibacterial activity, agar dilution MIC; type: cell-based; details: 18 hours; for MIC: Micrococcus luteus, ATCC9341, without sheep blood, read-out: Minimum Inhibitory Concentration
Procedure: as §1

[2] = tested on: Staphylococcus aureus (ATCC 29213); assay: In vitro antibacterial activity, agar dilution MIC; type: cell-based; details: ATCC29213, 18 h, read-out: Minimum Inhibitory Concentration
Procedure: as §1

[3] = tested on: Staphylococcus aureus (ID-2371); assay: In vitro antibacterial activity, agar dilution MIC; type: cell-based; details: 18 h, read-out: Minimum Inhibitory Concentration
Procedure: as §1

[4] = tested on: Staphylococcus aureus (ID-2727); assay: In vitro antibacterial activity, agar dilution MIC; type: cell-based; details: 18 h, read-out: Minimum Inhibitory Concentration
Procedure: as §1

[5] = tested on: Staphylococcus aureus (ID-3105); assay: In vitro antibacterial activity, agar dilution MIC; type: cell-based; details: 18 h, read-out: Minimum Inhibitory Concentration
Procedure: as §1

[6] = tested on: Staphylococcus aureus (ID-4379); assay: In vitro antibacterial activity, agar dilution MIC; type: cell-based; details: 18 h, read-out: Minimum Inhibitory Concentration
Procedure: as §1

[7] = tested on: Staphylococcus haemolyticus (ID-4061); assay: In vitro antibacterial activity, agar dilution MIC; type: cell-based; details: 18 h, read-out: Minimum Inhibitory Concentration
Procedure: as §1

[8] = tested on: Streptococcus pneumoniae (ID-4444); assay: In vitro antibacterial activity, agar dilution MIC; type: cell-based; details: 18 h, read-out: Minimum Inhibitory Concentration
Procedure: as §1

[9] = Stability (conversion in neutral or basic solution; decomposition on drying); type: physicochemical
Procedure: The crude product is then separated into the α1, α2, β1 and β2 components and further purified by high performance liquid chromatography on a reverse-phase column equilibrated with 0.1% trifluoroacetic acid in water followed by slution with an acetonitrile gradient to 10%. Active fractions are pooled and freeze dried. Freeze dried fractions are dissolved in 0.01M hydrochloric acid, applied to a reverse phase column and eluted with an acetonitrile gradient to 10% resolves the two components α1 and α2. […] Beta is the quinone form of α1 or α2 having lost hydrogens from the oxygens connected to carbon10 and 13.
The freeze dried material is suspended in methanol and the insolubles removed by filtration. The soluble material is concentrated to dryness and the concentrate dissolved in 1% trifluoroacetic acid in water. Insolubles are removed by centrifugation. The soluble material is loaded onto a preparative reverse phase C18 column equilibrated with 0.1% trifluoroacetic acid in water. The column is eluted with an acetonitrile gradient to 10%. Active fractions containing the alpha component are pooled and freeze dried. Active fractions containing the beta component are adjusted to pH 8 with solid ammonium bicarbonate and extracted with methylene chloride. The beta component is stored in methylene chloride as drying leads to rapid decomposition. […]

[10] = read-out: Minimum Inhibitory Concentration, CNS (4615), without sheep blood
[11] = read-out: Minimum Inhibitory Concentration, CNS (ID-3120), without sheep blood
[12] = read-out: Minimum Inhibitory Concentration, CNS (ID-3941), without sheep blood
[13] = Staphylococcus aureus (ATCC 29213-), without sheep blood

`COc1c(C)c(O)c2c(c1O)C1COC3C4CC5C(N4)C(C2N2CCOC52)N13` (stereo not drawn) [31F508α1] showed an MIC (B. cereus (Bacto); with 5% sheep blood) of 1 µg/mL (≈ 2.58 µM), an MIC (B. cereus (Bacto); without sheep blood) of 0.5 µg/mL (≈ 1.29 µM) and an MIC (CNS (4615); read-out: Minimum Inhibitory Concentration, CNS (4615), with 5% sheep blood) of 0.03 µg/mL (≈ 0.0774 µM). It also gave an MIC (CNS (4615); [10]) of 0.015 µg/mL (≈ 0.0387 µM), an MIC (CNS (ID-3120); read-out: Minimum Inhibitory Concentration, CNS (ID-3120), with 5% sheep blood) of 0.03 µg/mL (≈ 0.0774 µM) and an MIC (CNS (ID-3120); [11]) of 0.015 µg/mL (≈ 0.0387 µM). The MIC (CNS (ID-3941); read-out: Minimum Inhibitory Concentration, CNS (ID-3941), with 5% sheep blood) was 0.06 µg/mL (≈ 0.155 µM), the MIC (CNS (ID-3941); [12]) was 0.03 µg/mL (≈ 0.0774 µM) and the MIC (E. Avium (ID-3953); with 5% sheep blood) was 0.25 µg/mL (≈ 0.645 µM). For the same molecule, the MIC (E. Avium (ID-3953); without sheep blood) was 0.06 µg/mL (≈ 0.155 µM), the MIC (E. coli (ATCC 25922)) was 1 µg/mL (≈ 2.58 µM) and the “Minimum Inhibitory Concentration” value (E. coli (ATCC 25922); with 5% sheep blood) was 1.000 µg/mL. The MIC (E. coli (J2175); with 5% sheep blood) was 2 µg/mL (≈ 5.16 µM), the MIC (E. coli (J2175); without sheep blood) was 1 µg/mL (≈ 2.58 µM) and the MIC (E. coli (J2445); with 5% sheep blood) was 0.12 µg/mL (≈ 0.31 µM). For the same molecule, the MIC (E. coli (J2445); without sheep blood) was 0.06 µg/mL (≈ 0.155 µM), the MIC (E. faecalis (12201); with 5% sheep blood) was 0.06 µg/mL (≈ 0.155 µM) and the MIC (E. faecalis (12201); without sheep blood) was 0.03 µg/mL (≈ 0.0774 µM). It also gave an MIC (E. faecalis (ID-1829); with 5% sheep blood) of 0.5 µg/mL (≈ 1.29 µM), an MIC (E. faecalis (ID-1829); without sheep blood) of 0.12 µg/mL (≈ 0.31 µM) and an MIC (E. faecalis (ID-4168); with 5% sheep blood) of 0.12 µg/mL (≈ 0.31 µM). For the same molecule, the MIC (E. faecalis (ID-4168); without sheep blood) was 0.06 µg/mL (≈ 0.155 µM), the MIC (E. faecium (ID-4133)) was 0.002 µg/mL (≈ 0.00516 µM) and the “Minimum Inhibitory Concentration” value (E. faecium (ID-4133); with 5% sheep blood) was 0.002 µg/mL. For the same molecule, the MIC (M. morganii (VGH 84-11); with 5% sheep blood) was 2 µg/mL (≈ 5.16 µM), the MIC (M. morganii (VGH 84-11); without sheep blood) was 1 µg/mL (≈ 2.58 µM) and the MIC [1] was 2 µg/mL (≈ 5.16 µM). For the same molecule, the “Minimum Inhibitory Concentration” value ([1]; with 5% sheep blood) was 2.000 µg/mL, the MIC (S. Pyogenes (ID-3187); with 5% sheep blood) was 0.004 µg/mL (≈ 0.0103 µM) and the MIC (S. Pyogenes (ID-3187); without sheep blood) was 0.002 µg/mL (≈ 0.00516 µM). For the same molecule, the MIC (S. lutea (ATCC 9341)) was 0.002 µg/mL (≈ 0.00516 µM), the “Minimum Inhibitory Concentration” value (S. lutea (ATCC 9341); with 5% sheep blood) was 0.002 µg/mL and the MIC ([2]; Staphylococcus aureus (ATCC 29213), with 5% sheep blood) was 0.12 µg/mL (≈ 0.31 µM). The MIC [2, 13] was 0.06 µg/mL (≈ 0.155 µM), the MIC ([3]; with 5% sheep blood) was 0.06 µg/mL (≈ 0.155 µM) and the MIC ([3]; without sheep blood) was 0.03 µg/mL (≈ 0.0774 µM). The MIC ([4]; with 5% sheep blood) was 0.015 µg/mL (≈ 0.0387 µM), the MIC ([4]; without sheep blood) was 0.008 µg/mL (≈ 0.0206 µM) and the MIC ([5]; with 5% sheep blood) was 0.06 µg/mL (≈ 0.155 µM). For the same molecule, the MIC ([5]; without sheep blood) was 0.03 µg/mL (≈ 0.0774 µM), the MIC ([6]; with 5% sheep blood) was 0.12 µg/mL (≈ 0.31 µM) and the MIC ([6]; without sheep blood) was 0.03 µg/mL (≈ 0.0774 µM). The MIC ([7]; with 5% sheep blood) was 0.015 µg/mL (≈ 0.0387 µM), the MIC ([7]; without sheep blood) was 0.008 µg/mL (≈ 0.0206 µM) and the MIC ([8]; with 5% sheep blood) was 0.008 µg/mL (≈ 0.0206 µM). The MIC ([8]; without sheep blood) was 0.002 µg/mL (≈ 0.00516 µM) and the “Conversion to the beta (quinone) form” value ([9]; listed as α1) was “converts to the beta form”.
With `COc1c(C)c(O)c2c(c1O)C1COC3C4CC5C(C(C2N2CCOC52)N13)N4C` (stereo not drawn) [31F508α2] the MIC (B. cereus (Bacto); without sheep blood) was 0.25 µg/mL (≈ 0.623 µM), the MIC (CNS (4615); [10]) was 0.002 µg/mL (≈ 0.00498 µM) and the MIC (CNS (ID-3120); [11]) was 0.002 µg/mL (≈ 0.00498 µM). The MIC (CNS (ID-3941); [12]) was 0.002 µg/mL (≈ 0.00498 µM), the MIC (E. Avium (ID-3953); without sheep blood) was 0.03 µg/mL (≈ 0.0747 µM) and the MIC (E. coli (ATCC 25922)) was 0.5 µg/mL (≈ 1.25 µM). For the same molecule, the MIC (E. coli (J2175); without sheep blood) was 1 µg/mL (≈ 2.49 µM), the MIC (E. coli (J2445); without sheep blood) was 0.004 µg/mL (≈ 0.00996 µM) and the MIC (E. faecalis (12201); without sheep blood) was 0.015 µg/mL (≈ 0.0374 µM). For the same molecule, the MIC (E. faecalis (ID-1829); without sheep blood) was 0.06 µg/mL (≈ 0.149 µM), the MIC (E. faecalis (ID-4168); without sheep blood) was 0.12 µg/mL (≈ 0.299 µM) and the MIC (E. faecium (ID-4133)) was 0.002 µg/mL (≈ 0.00498 µM). The MIC (M. morganii (VGH 84-11); without sheep blood) was 0.5 µg/mL (≈ 1.25 µM), the MIC [1] was 2 µg/mL (≈ 4.98 µM) and the MIC (S. Pyogenes (ID-3187); without sheep blood) was 0.002 µg/mL (≈ 0.00498 µM). It also gave an MIC (S. lutea (ATCC 9341)) of 0.002 µg/mL (≈ 0.00498 µM), an MIC [2, 13] of 0.008 µg/mL (≈ 0.0199 µM) and an MIC ([3]; without sheep blood) of 0.004 µg/mL (≈ 0.00996 µM). The MIC ([4]; without sheep blood) was 0.002 µg/mL (≈ 0.00498 µM), the MIC ([5]; without sheep blood) was 0.004 µg/mL (≈ 0.00996 µM) and the MIC ([6]; without sheep blood) was 0.004 µg/mL (≈ 0.00996 µM). The MIC ([7]; without sheep blood) was 0.002 µg/mL (≈ 0.00498 µM), the MIC ([8]; without sheep blood) was 0.002 µg/mL (≈ 0.00498 µM) and the “Conversion to the beta (quinone) form” value ([9]; listed as α2) was “converts to the beta form”.
